# Measured values: US20130296239A1, “Material for Wound Healing and Skin Reconstruction” (3-D Matrix, Ltd., priority 2007, published 2013)
# Where “and” joins values, the source holds several entries; their conditions need not be identical. Identical values can stand only once.
# Assays:
# [1] = test system: skin wound model mice (1 cm×1 cm wound); experiment: Skin wound model of mice: wound area and observation of the affected area; assay type: in vivo, NTaC:NIHS-Foxn1 <nu> type nude mice
# Protocol: 30 NTaC:NIHS-Foxn1 type nude mice (female, weight ˜20 g) were used as experimental animals. The mice were housed in the condition of a temperature of 17 to 26° C., a relative humidity of 30 to 70%, a 12-hour light/dark cycle, minimum of ten fresh air changes/hour, and diet was provided once daily and the mice had access to water ad libitum.
# Anesthesia was induced by placing the mice in a chamber filled with isoflurane at 2.5 to 4%, and maintained with isoflurane delivered through a nose cone at 0.5 to 2.5%.
# All residual hair was removed from the upper right dorsum, and the operative area was cleaned with three alternating scrubs of povidone-iodine scrub and 70% alcohol. Once the alternating scrubs were complete, a final application of povidone-iodine scrub was applied and allowed to dry. The area was draped for aseptic surgery.
# Forceps were used to pinch up a fold of skin (at what would become the lower right corner of the wound), and scissors were used to separate the skin and create a 1 cm×1 cm wound. Blood was soaked up with a sterile gauze pad.
# (b-1) The centrifuge tube was placed into a cool water bath. The bath was sonicated for 30 min, and then the contents of the tube were vortexed for one minute. Air bubbles were then removed via centrifugation (3000 rpm, 1 min). Vortexing and centrifugation were repeated as necessary to remove all bubbles. The 1% PuraMatrix (trade mark) solution was prepared and administered to animals in test group-1.
# (b-2) The 5 ng/μL hbFGF PBS solution (20 μL) was added to the sterile centrifuge tube previously containing 1 mL of 1% PuraMatrix (trade mark). The mixture was then vortexed to homogenize. The centrifuge tube was placed into the cool water bath and sonicated for 30 min, vortexed for 1 min, then centrifuged at room temperature (3000 rpm, 1 min) to remove air bubbles. Vortexing and centrifugation were repeated as necessary to remove all air bubbles. The PuraMatrix+hbFGF solution obtained was administered to animals in the test group-2.
# The 30 skin wound model mice produced in (a) were divided into three groups of 10 mice, and treated according to the scheme in Table 1 immediately after the surgical procedure. The day when surgical procedure was performed (wound creation) was regarded as Day 0. Observation of wound area was performed at just before a treatment on Day 0 (FIG. 1), Day 7 (FIG. 2), Day 14 (FIG. 3), Day 21 (FIG. 4) and Day 28 (FIG. 5).
# Baseline wound measurements were recorded prior to the application of the first dressing. Weekly measurements were obtained by removing the dressing of self-assembling hydropeptide gel (for the control group, a petroleum jelly impregnated gauze only) and exposing the wound site. A ruler was placed adjacent to the wound area and digital photographs were obtained, thereafter, the wound was re-dressed with the self-assembling hydropeptide gel (for the control group, a petroleum jelly impregnated gauze only). Wound area was calculated using ImageJ version 1.37 at the NIH website.
# [2] = test system: wound area of skin wound model mice; experiment: Histopathological observation of wound area on Day 28; assay type: in vivo, nude mice; set-up: key to Vascularization: 0: Decreased vascularity compared to normal dermis.; 1: Dermal vascularity within normal limits.; 2: Minimally increased prominence of dermal or wound capillaries.; 3: Mild increase in prominence of dermal or wound capillaries.; 4: Moderate increase in prominence of dermal or wound capillaries; key to Collagen quality: 0: Lack of fibroplasia and/or collagen in wound.; 1: Minimal to mild fibroplasia in the granulation tissue of the wound.; 2: Moderate fibroplasia and collagen throughout the wound.; 3: Superficial portion of the wound has dense collagen similar to normal dermal collagen.; 4: Dense collagen throughout the wound; key to Inflammation: 0: No increase in inflammatory cells (within normal limits for dermis of nude mice).; 1: Minimal increase in inflammatory cells.; 2: Mild increase in inflammatory cells.; 3: Moderate increase in inflammatory cells.; 4: Marked increase in inflammatory cells; key to Epithelization: 0: No re-epithelization.; 1: Partial re-epithelization. (Wound surface is not completely covered by epithelial cells.); 2: Re-epithelization across the full surface of the wound, but the epithelium is not a stratified squamous epithelium with multiple strata; 3: Re-epithelization across the full surface of the wound with a stratified squamous epithelium and keratinization, but there is evidence of active remodeling; 4: Complete re-epithelization with a keratinized stratified squamous epithelium with remodeling and organization within normal limits
# Protocol: In order to evaluate parameters of wound healing in the skin of nude mice from three groups, histopathological examination was carried out.
# After the observation on Day 28, each mouse was sacrificed and a paraffin block containing the wound area, through the center of each wound perpendicular to the apparent longest axis was produced. A hematoxylin and eosin-stained and a trichrome-stained histologic sections were prepared from each block. Using the H&E-stained section, the epithelization, vascularization, and inflammation associated with the wound were ranked, and using the trichrome-stained section the amount and quality of collagen in the area of the wound were evaluated. The results of these evaluations were shown in Table 2-1 (control group), Table 2-2 (test group-1), and Table 2-3 (test group-2).
# Definitions for each score are as follows.
# 0=No re-epithelization. 1=Partial re-epithelization. (Wound surface is not completely covered by epithelial cells.) 2=Re-epithelization across the full surface of the wound, but the epithelium is not a stratified squamous epithelium with multiple strata (stratum basale, stratum spinosum, stratum granulosum). 3=Re-epithelization across the full surface of the wound with a stratified squamous epithelium and keratinization, but there is evidence of active remodeling in the form of apoptotic or necrotic cells or dyskeratosis, or multiple mitotic figures, or irregular thickness or irregular strata (hyperplasia). 4=Complete re-epithelization with a keratinized stratified squamous epithelium with remodeling and organization within normal limits. (The only alteration is lack of hair follicles and adenexia in the dermis.)
# 0=Decreased vascularity compared to normal dermis. 1=Dermal vascularity within normal limits. […] Increased prominence may be due to increased number, dilation (congestion or hyperemia), or increased size. 3=Mild increase in prominence of dermal or wound capillaries. 4=Moderate increase in prominence of dermal or wound capillaries. <Inflammation> Inflammation consisted of increased number of neutrophils and macrophages in the dermis and scar tissue beneath the epidermis. […] 0=No increase in inflammatory cells (within normal limits for dermis of nude mice). 1=Minimal increase in inflammatory cells. Inflammation tends to be multifocal, perivascular. 2=Mild increase in inflammatory cells. Inflammation tends to be multifocal, perivascular. 3=Moderate increase in inflammatory cells. 4=Marked increase in inflammatory cells.
# 0=Lack of fibroplasia and/or collagen in wound. 1=Minimal to mild fibroplasia in the granulation tissue of the wound. 2=Moderate fibroplasia and collagen throughout the wound. 3=Superficial portion of the wound has dense collagen similar to normal dermal collagen. 4=Dense collagen throughout the wound. There are relatively fewer fibroblasts and the collagen is slightly denser than normal dermis.
# Depth of collagen (μm) beneath the epithelium in the wound was estimated at the thickest portion of the collagen using an ocular micrometer that was calibrated with an objective micrometer (×10).
# [3] = liquid when pH is not higher than 5.0; cited from earlier work
# [4] = Day 28, compared to control group
# [5] = rank score, Day 28, H&E-stained section, one value per mouse
substance,measurement,setting,value
Ac-(RADA)4-CONH2 [PuraMatrix],wound area,"[1]; Day 7, compared to control group (FIG. 2)",decreased drastically
same,"healing rate (ratio of the wound area to the area when wound created, FIG. 6)","[1]; Day 7 and Day 14, compared to control group, 100 μL to wound area",healing more quickly than those in the control group
same,healing of the wound area,[1]; Day 14 (FIG. 3),almost complete
same,healing of the wounds,[1]; Day 21 (FIG. 4),completely healed
same,puckering of skin,"[1]; Day 21, compared to control group (FIG. 4)",less puckering of skin
same,scar,"[1]; Day 28, observation before dissection",visible in all animals
same,wound contraction noted,"[1]; Day 28, observation before dissection, all animals in control group (FIG. 5)",8/10
same,overall wound healing effect,[1]; conclusion from Day 0-28 observations,significant healing effect visibly recognized
same,Collagen depth,"[2]; Day 28, beneath the epithelium at thickest portion of collagen, one value per mouse",550 μm (2×) and 250 μm (3×) and 470 μm and 500 μm (2×) and 540 μm and 200 μm
same,ranking of epithelization and vascularization across groups,"[2]; Day 28, compared across the three groups",little difference
same,mice with an inflammation rank 0,[2]; [4],larger numbers of mice
same,mice with dense collagen throughout the wound scar,[2]; [4],larger numbers of mice
same,typical state of wound area structure in pathological section,"[2]; Day 28, photomicrograph, compared to control group (FIG. 8, FIG. 9)",there is dense collagen so that the dermis 2 is slightly more stained
same,"mice with rank scores 4, 1, 0, 4 (most advanced wound healing)","[2]; Day 28, no mice in control group",one
same,Epithelization,[2]; [5],4 (5×) and 3 (5×)
same,Inflammation,[2]; [5],1 (5×) and 0 (3×) and 2 (2×)
same,Vascularization,[2]; [5],2 (6×) and 1 (4×)
same,Collagen quality,"[2]; rank score, Day 28, trichrome-stained section, one value per mouse",3 (3×) and 4 (7×)
same,pH at which the peptide solution forms a gel (self-assembles into nanofibers),[3],higher than 5.0
